In PMC3831620 (Naunyn-Schmiedeberg's archives of pharmacology, 2012):
pEC50, pIC50, pKi: −log10 of the molar value. Read-outs that look alike come from different tables or passages of the source.

Assays:
adenosine A1 receptor = target: T1, adenosine A1 receptor (Homo sapiens, UniProt P30542); assay: Radioligand competition binding, [3H]CCPA, membranes of transfected CHO cells; conditions: Ki A1 (curve of Figure 2), single experiment
T1 sequence (P30542 1-326): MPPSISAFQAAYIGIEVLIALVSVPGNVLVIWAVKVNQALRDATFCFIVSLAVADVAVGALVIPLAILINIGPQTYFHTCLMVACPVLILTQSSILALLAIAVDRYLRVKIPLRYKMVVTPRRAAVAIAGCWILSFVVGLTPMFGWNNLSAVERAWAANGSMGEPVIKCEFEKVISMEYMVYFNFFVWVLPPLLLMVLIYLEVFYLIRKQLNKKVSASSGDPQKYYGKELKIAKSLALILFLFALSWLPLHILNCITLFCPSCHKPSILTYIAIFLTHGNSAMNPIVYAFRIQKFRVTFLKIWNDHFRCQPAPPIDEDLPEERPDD

adenosine A3 receptor = target: T2, adenosine A3 receptor (Homo sapiens, UniProt P0DMS8); assay: Radioligand competition binding, [3H]HEMADO, membranes of transfected CHO cells
T2 sequence (P0DMS8 1-318): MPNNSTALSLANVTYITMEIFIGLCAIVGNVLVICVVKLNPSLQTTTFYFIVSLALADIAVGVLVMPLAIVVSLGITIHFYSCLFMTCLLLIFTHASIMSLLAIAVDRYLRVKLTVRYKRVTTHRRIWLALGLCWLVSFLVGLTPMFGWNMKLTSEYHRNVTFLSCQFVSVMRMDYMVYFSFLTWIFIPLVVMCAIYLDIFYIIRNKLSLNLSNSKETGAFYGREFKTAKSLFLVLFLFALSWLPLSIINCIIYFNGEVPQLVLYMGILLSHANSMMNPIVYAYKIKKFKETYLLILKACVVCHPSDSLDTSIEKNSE

A1 receptor = target: T3, A1 receptor (Homo sapiens, UniProt P30542); format: biochemical; conditions: for maximal inhibition of forskolin-stimulated adenylyl cyclase: compared with CCPA, n = 3
T3 sequence (P30542 1-326): T1 sequence (P30542 1-326)

[1] = hematopoietic cell transplant; ref Beitinjaneh et al. 2011, Chun et al. 1986, Ding et al. 2008; cited from earlier work
[2] = tested on: any adenosine receptor subtype; assay: Radioligand competition binding, stated for any adenosine receptor subtype; set-up: species or system human; conditions: for binding affinity in words: any adenosine receptor subtype, data not shown; for pKi: read-out: Ki at any of the adenosine receptor subtypes, any subtype
adenosine A2A receptor = adenosine A2A receptor (Homo sapiens, UniProt P29274); assay: Radioligand competition binding, [3H]NECA, membranes of transfected CHO cells; conditions: Ki A2A (curve of Figure 2B), single experiment
A2A adenosine receptor = A2A adenosine receptor (Homo sapiens, UniProt P29274); assay: A2A receptor-mediated stimulation of adenylyl cyclase, CHO membranes; format: biochemical; conditions: for efficacy compared to the full agonist NECA: A2A stimulation of adenylyl cyclase, 1 μM NECA control; for agonist character at the A2A adenosine receptor: compared to NECA
A2B receptor = target: T4, A2B receptor (Homo sapiens, UniProt P29275); assay: A2B receptor-mediated adenylyl cyclase activity, CHO membranes; format: biochemical
T4 sequence (P29275 1-332): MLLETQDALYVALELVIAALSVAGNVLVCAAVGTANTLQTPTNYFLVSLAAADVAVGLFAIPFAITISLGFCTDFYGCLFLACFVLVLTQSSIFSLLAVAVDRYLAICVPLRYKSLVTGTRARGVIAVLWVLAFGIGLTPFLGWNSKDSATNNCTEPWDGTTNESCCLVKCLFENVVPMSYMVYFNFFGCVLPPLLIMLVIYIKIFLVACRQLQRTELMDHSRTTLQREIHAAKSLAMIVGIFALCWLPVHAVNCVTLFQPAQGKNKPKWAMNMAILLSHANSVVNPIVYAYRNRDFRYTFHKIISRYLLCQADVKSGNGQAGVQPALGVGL

[3] = tested on: adenosine receptor subtype A1; conditions: murine models; ref Lorenzen et al. 1998; cited from earlier work

Sequence of A2A adenosine receptor (P29274 whole entry): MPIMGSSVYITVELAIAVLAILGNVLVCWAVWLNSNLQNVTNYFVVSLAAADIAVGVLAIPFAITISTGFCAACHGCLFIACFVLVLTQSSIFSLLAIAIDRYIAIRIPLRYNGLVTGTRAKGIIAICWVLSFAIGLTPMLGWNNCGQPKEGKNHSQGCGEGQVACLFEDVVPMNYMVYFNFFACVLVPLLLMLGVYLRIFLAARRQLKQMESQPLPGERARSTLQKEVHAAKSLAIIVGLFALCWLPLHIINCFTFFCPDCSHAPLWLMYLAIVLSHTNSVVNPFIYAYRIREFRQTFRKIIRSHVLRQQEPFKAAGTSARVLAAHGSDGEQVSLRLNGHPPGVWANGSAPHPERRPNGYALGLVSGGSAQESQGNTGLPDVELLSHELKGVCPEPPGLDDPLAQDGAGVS
Sequence of adenosine A2A receptor (P29274 whole entry): as above

Nc1nc(F)nc2c1ncn2[C@@H]1O[C@H](CO)[C@@H](O)[C@@H]1O [fludarabine, 2-fluoroadenine-9-β-D-arabinofuranoside]
pKi (adenosine A1 receptor): 5.65 | pKi (adenosine A3 receptor): < 4.00 | pIC50 (A1 receptor): < 5.00 | maximal inhibition of forskolin-stimulated adenylyl cyclase (A1 receptor): comparable to the full A1 receptor agonist CCPA | patients experiencing mild to severe neurological toxicities [1]: 2-10%

Nc1ccn([C@@H]2O[C@H](CO)[C@@H](O)[C@@H]2O)c(=O)n1 [cytarabine, cytosine β-D-arabinofuranoside]
binding affinity in words [2]: no detectable affinity | pKi [2]: < 4.00

Nc1nc(Cl)nc2c1ncn2[C@@H]1O[C@H](CO)[C@@H](O)[C@@H]1F [clofarabine, 2-chloro-2′-arabino-fluoro-2′-deoxyadenosine]
pKi (adenosine A1 receptor): 6.61 | pKi (adenosine A2A receptor): 4.76 | pKi (adenosine A3 receptor; Ki A3 (curve of Figure 2B), [3H]HEMADO, single experiment): 5.08 | efficacy in decreasing adenylyl cyclase activity, comparison (A1 receptor; 10 μM, versus equivalent concentrations of fludarabine or cladribine): more efficacious | pIC50 (A1 receptor; IC50 A1 agonist, adenylyl cyclase inhibition, values in text and abstract): 5.51 | maximal inhibition of forskolin-stimulated adenylyl cyclase (A1 receptor): comparable to the full A1 receptor agonist CCPA | pIC50 (A2A adenosine receptor): 5.01 | efficacy compared to the full agonist NECA (A2A adenosine receptor): about 50% | agonist character at the A2A adenosine receptor (A2A adenosine receptor): partial agonists | pEC50 (A2B receptor): < 4.00

Nc1nc(F)nc2c1ncn2[C@@H]1O[C@H](COP(=O)(O)O)[C@@H](O)[C@@H]1O [Fludarabine monophosphate, 2-fluoroadenine-9-β-D-arabinofuranoside-5′phosphate]
binding affinity in words [2]: no detectable affinity

Nc1nc(Cl)nc2c1ncn2[C@H]1C[C@H](O)[C@@H](CO)O1 [cladribine, 2-chloro-2′-deoxyadenosine]
pKi (adenosine A1 receptor): 5.78 | pKi (adenosine A3 receptor): < 4.00 | pIC50 (A1 receptor): < 5.00 | maximal inhibition of forskolin-stimulated adenylyl cyclase (A1 receptor): comparable to the full A1 receptor agonist CCPA | pIC50 (A2A adenosine receptor): 4.79 | efficacy compared to the full agonist NECA (A2A adenosine receptor): ~40% | agonist character at the A2A adenosine receptor (A2A adenosine receptor): partial agonists | agonist character at adenosine receptor subtype A1 [3]: partial agonist

Nc1ccn([C@@H]2O[C@H](CO)[C@@H](O)C2(F)F)c(=O)n1 [gemcitabine, 2′,2′-difluoro-2′-deoxycytidine]
binding affinity in words [2]: no detectable affinity | pKi [2]: < 4.00
